Test results from patent US10604494B2, “Acylated N-(1 ,2,5-oxadiazol-3-yl)-, N-(1,3,4-oxadiazol-2-yl)-, N-(tetrazol-5-yl)- and N-(triazol-5-yl)-aryl carboxamides, and use thereof as herbicides” (Bayer CropScience Aktiengesellschaft, priority 2015, dated 2020).

Columns and labels:
Format in all cases: in vivo
Abutilon theophrasti [1] = assay: Post-emergence herbicidal action against harmful plants; conditions: 504 h, one-leaf stage, application rate 80 g/ha, assessed visually after about 3 weeks vs untreated controls, 100% = plants have died, 0% = like control plants, read-out: efficacy (herbicidal action in percent) against Abutilon theophrasti
Description: (§1) 2. Post-Emergence Herbicidal Action Against Harmful Plants Seeds of monocotyledonous and dicotyledonous weed and crop plants are laid out in sandy loam soil in wood-fiber pots, covered with soil and cultivated in a greenhouse under good growth conditions. 2 to 3 weeks after sowing, the test plants are treated at the one-leaf stage. The compounds of the invention, formulated in the form of wettable powders (WP) or as emulsion concentrates (EC), are then sprayed onto the green parts of the plants in the form of an aqueous suspension or emulsion at a water application rate equating to 600 to 800 I/ha, with addition of 0.2% wetting agent. After the test plants have been left to stand in the greenhouse under optimal growth conditions for about 3 weeks, the action of the preparations is assessed visually in comparison to untreated controls (herbicidal action in percent (%): 100% activity=the plants have died, 0% activity=like control plants). In this case, for example, compound Nos. 1-028, 1-085, 1-086, 1-206, 1-447, 1-448, 1-449, 1-453, 1-457, 1-460, 1-470, 1-471, 1-472, 1-487, 2-500, 3-143, 3-146, 3-487, 3-491, 3-492, 4-144, 4-188, 13-001, 13-031 and 13-032, at an application rate of 80 g/ha, each show at least 80% efficacy against Abutilon theophrasti and Veronica persica.

Veronica persica [2] = assay: as above; conditions: 504 h, one-leaf stage, application rate 80 g/ha, assessed visually after about 3 weeks vs untreated controls, 100% = plants have died, 0% = like control plants, read-out: efficacy (herbicidal action in percent) against Veronica persica
Description: as §1

Abutilon theophrasti [3] = assay: Pre-emergence herbicidal action against harmful plants; conditions: 504 h, application rate 320 g/ha, scored visually after 3 weeks vs untreated controls, 100% = plants have died, 0% = like control plants, read-out: efficacy (herbicidal activity in percent) against Abutilon theophrasti
Source text: (§2) 1. Pre-Emergence Herbicidal Action Against Harmful Plants Seeds of monocotyledonous and dicotyledonous weed plants and crop plants are laid out in sandy loam in wood-fiber pots and covered with soil. The compounds of the invention, formulated in the form of wettable powders (WP) or as emulsion concentrates (EC), are then applied to the surface of the covering soil in the form of an aqueous suspension or emulsion at a water application rate equating to 600 to 800 I/ha, with addition of 0.2% wetting agent. After the treatment, the pots are placed in a greenhouse and kept under good growth conditions for the trial plants. The damage to the test plants is scored visually after a test period of 3 weeks by comparison with untreated controls (herbicidal activity in percent (%): 100% activity=the plants have died, 0% activity=like control plants). In this case, for example, compound Nos. 1-086, 1-028, 1-206, 1-447, 1-448, 1-449, 1-454, 1-458, 1-470, 1-471, 1-472, 1-477, 1-487, 2-477, 2-480, 2-500, 3-143, 3-475, 3-491, 4-188, 4-495, 4-430, 4-496, 13-001, 13-031 and 13-032, at an application rate of 320 g/ha, each show at least 80% efficacy against Abutilon theophrasti and Veronica persica.

Veronica persica [4] = assay: as above; conditions: 504 h, application rate 320 g/ha, scored visually after 3 weeks vs untreated controls, 100% = plants have died, 0% = like control plants, read-out: efficacy (herbicidal activity in percent) against Veronica persica
Source text: as §2

CC(=O)N(C(=O)c1ccc(C(F)(F)F)cc1S(C)(=O)=O)c1nnnn1C [13-001, 2-(methylsulfonyl)-4-trifluoromethyl-N-acetyl-N-(1-methyltetrazol-5-yl)benzamide]
≥ 80%: pest or weed control at 80 g/ha (Abutilon theophrasti [1]) | pest or weed control at 80 g/ha (Veronica persica [2]) | pest or weed control at 320 g/ha (Abutilon theophrasti [3]) | pest or weed control at 320 g/ha (Veronica persica [4])

Cc1nonc1N(C(=O)c1ccc(C(F)(F)F)c([S+](C)[O-])c1C)C(=O)c1ccc(C(F)(F)F)c([S+](C)[O-])c1C (centres unmarked) [4-144]
≥ 80%: pest or weed control at 80 g/ha (Abutilon theophrasti [1]) | pest or weed control at 80 g/ha (Veronica persica [2])

Cc1c(C(=O)N(C(=O)c2ccc(C(F)(F)F)c(N(C)C)c2C)c2nnnn2C)ccc(C(F)(F)F)c1N(C)C [1-448]
≥ 80%: pest or weed control at 80 g/ha (Abutilon theophrasti [1]) | pest or weed control at 80 g/ha (Veronica persica [2]) | pest or weed control at 320 g/ha (Abutilon theophrasti [3]) | pest or weed control at 320 g/ha (Veronica persica [4])

CCOC(=O)c1c(SC)ccc(C(=O)N(C(=O)c2ccc(SC)c(C(=O)OCC)c2C)c2nnnn2C)c1C [1-453, 3-(ethoxycarbonyl)-2-methyl-4-(methylsulfanyl)-N-(3-(ethoxycarbonyl)-2-methyl-4-(methylsulfanyl)benzoyl)-N-(1-methyltetrazol-5-yl)benzamide]
≥ 80%: pest or weed control at 80 g/ha (Abutilon theophrasti [1]) | pest or weed control at 80 g/ha (Veronica persica [2])

CCOc1c(C(=O)N(C(=O)c2ccc(C(F)(F)F)c(SC)c2OCC)c2nnnn2C)ccc(C(F)(F)F)c1SC [1-471]
≥ 80%: pest or weed control at 80 g/ha (Abutilon theophrasti [1]) | pest or weed control at 80 g/ha (Veronica persica [2]) | pest or weed control at 320 g/ha (Abutilon theophrasti [3]) | pest or weed control at 320 g/ha (Veronica persica [4])

CC[S+]([O-])c1c(S(C)(=O)=O)ccc(C(=O)N(C(=O)c2ccc(S(C)(=O)=O)c([S+]([O-])CC)c2C)c2nonc2C)c1C (centres unmarked) [4-188]
≥ 80%: pest or weed control at 80 g/ha (Abutilon theophrasti [1]) | pest or weed control at 80 g/ha (Veronica persica [2]) | pest or weed control at 320 g/ha (Abutilon theophrasti [3]) | pest or weed control at 320 g/ha (Veronica persica [4])

CSc1c(N(C)C)ccc(C(=O)N(C(=O)c2ccc(N(C)C)c(SC)c2C)c2nnnn2C)c1C [1-454]
≥ 80%: pest or weed control at 320 g/ha (Abutilon theophrasti [3]) | pest or weed control at 320 g/ha (Veronica persica [4])

Cc1c(C(=O)N(C(=O)c2ccc(C(F)(F)F)c(N)c2C)c2nnnn2C)ccc(C(F)(F)F)c1N [1-447]
≥ 80%: pest or weed control at 80 g/ha (Abutilon theophrasti [1]) | pest or weed control at 80 g/ha (Veronica persica [2]) | pest or weed control at 320 g/ha (Abutilon theophrasti [3]) | pest or weed control at 320 g/ha (Veronica persica [4])

CCOc1c(C(=O)N(C(=O)c2ccc(C(F)(F)F)c(S(C)(=O)=O)c2OCC)c2nnnn2C)ccc(C(F)(F)F)c1S(C)(=O)=O [1-472]
≥ 80%: pest or weed control at 80 g/ha (Abutilon theophrasti [1]) | pest or weed control at 80 g/ha (Veronica persica [2]) | pest or weed control at 320 g/ha (Abutilon theophrasti [3]) | pest or weed control at 320 g/ha (Veronica persica [4])

CSc1cc(C)cc(C(=O)N(C(=O)c2cc(C)cc(SC)c2C)c2nnnn2C)c1C [1-460]
≥ 80%: pest or weed control at 80 g/ha (Abutilon theophrasti [1]) | pest or weed control at 80 g/ha (Veronica persica [2])

CCOc1ccc(C(=O)N(C(=O)c2ccc(OCC)c(SC)c2C)c2nnnn2C)c(C)c1SC [1-457]
≥ 80%: pest or weed control at 80 g/ha (Abutilon theophrasti [1]) | pest or weed control at 80 g/ha (Veronica persica [2])

CSc1c(OCC(F)(F)F)ccc(C(=O)N(C(=O)c2ccc(OCC(F)(F)F)c(SC)c2C)c2nnnn2C)c1C [1-458]
≥ 80%: pest or weed control at 320 g/ha (Abutilon theophrasti [3]) | pest or weed control at 320 g/ha (Veronica persica [4])

CNc1c(C(F)(F)F)ccc(C(=O)N(C(=O)c2ccc(C(F)(F)F)c(NC)c2C)c2nnnn2C)c1C [1-449]
≥ 80%: pest or weed control at 80 g/ha (Abutilon theophrasti [1]) | pest or weed control at 80 g/ha (Veronica persica [2]) | pest or weed control at 320 g/ha (Abutilon theophrasti [3]) | pest or weed control at 320 g/ha (Veronica persica [4])

CC(C)c1c(C(=O)N(C(=O)c2ccc(C(F)(F)F)c(S(C)(=O)=O)c2C(C)C)c2nnnn2C)ccc(C(F)(F)F)c1S(C)(=O)=O [1-206]
≥ 80%: pest or weed control at 80 g/ha (Abutilon theophrasti [1]) | pest or weed control at 80 g/ha (Veronica persica [2]) | pest or weed control at 320 g/ha (Abutilon theophrasti [3]) | pest or weed control at 320 g/ha (Veronica persica [4])
